# Data: patent publication US6015801A, “Method for inhibiting bone resorption” (Merck & Co., Inc., priority 1998, dated 2000)
# Read-outs that look alike come from different tables or passages of the source.
# Columns and labels:
# esophagus = conditions: oral; literature; cited from earlier work
# bone [1] = conditions: cited from earlier work
# canine esophagus = assay: Esophageal irritation potential in a dog model (infusion into esophagus, histopathology); conditions: for Esophageal irritation potential: low dosages on consecutive days (Groups 7 and 8)
# Description: The esophageal irritation potential of the bisphosphonates is evaluated using a dog model.
# The following solutions are prepared:
# (1) simulated gastric juice (pH about 2), i.e. the control solution.
# (5) simulated gastric juice (pH about 2) containing about 0.20 mg/mL of risedronate sodium on a risedronic acid active basis.
# (6) simulated gastric juice (pH about 2) containing about 4.0 mg/mL of tiludronate disodium on a tiludronic acid active basis.
# The pH of the resulting solution is measured and if necessary is adjusted to about 2 using 1.0 M HCl (aqueous) or 1.0 M NaOH (aqueous).
# The animals used in the experiments are anesthetized and administered about 50 mL of the appropriate solution over about 30 minutes by infusion into the esophagus using an infusion pump and a rubber catheter. The following treatment experiments are run:
# Group 1: This control group contains four animals. Each animal is administered a dosage of about 50 mL of simulated gastric juice [solution (1)] on each of five consecutive days. The animals are sacrificed immediately after the last dose is administered. […]
# Group 7: This group contains eight animals. Each animal is administered a dosage of about 50 mL of simulated gastric juice containing about 0.20 mg/mL of risedronate [solution (5)] on each of five consecutive days. The animals are sacrificed immediately after the last dose is administered.
# Group 8: This group contains four animals. Each animal is administered a dosage of about 50 mL of simulated gastric juice containing about 4.0 mg/mL of tiludronate [solution (6)] on each of five consecutive days. The animals are sacrificed immediately after the last dose is administered.
# The esophagus from each sacrificed animal is removed and prepared for histopathology using standard techniques by embedding the tissue in paraffin, staining with hematoxylin and eosin. The sections are examined microscopically.
# bone [2] = conditions: Mortensen et al. 1995; cited from earlier work
# [3] = 0.20 mg/mL alendronate, 50 mL, 1x daily for 5 days, sacrifice immediately after last dosing (Group 2, n = 4), monosodium trihydrate
# [4] = 0.40 mg/mL alendronate, 50 mL, 2x weekly for 4 weeks (Group 6, n = 6), sacrifice about four days after last dose, immediately (Table 1), monosodium trihydrate
# [5] = 0.80 mg/mL alendronate, 50 mL, 1x weekly for a total of 4 doses, sacrifice 7 days after last dosing (Group 5, n = 6), monosodium trihydrate
# [6] = 0.80 mg/mL alendronate, 50 mL, single dose, sacrifice 24 hours after dosing (Group 3, n = 5), monosodium trihydrate
# [7] = 0.80 mg/mL alendronate, 50 mL, single dose, sacrifice 7 days after dosing (Group 4, n = 5), monosodium trihydrate
# [8] = 0.20 mg/mL risedronate, 50 mL, 1x daily for 5 days, sacrifice immediately after last dosing (Group 7, n = 8)
structure (smiles),measurement,setting,value
"NCCC(O)(P(=O)(O)O)P(=O)(O)O [Pamidronate, 3-amino-1-hydroxypropylidene-1,1-bisphosphonic acid]",Adverse esophageal effects associated with use,esophagus,esophageal ulcers
"CC(O)(P(=O)(O)O)P(=O)(O)O [Etidronate, 1-hydroxyethane-1,1-diphosphonic acid]",Effect on bone mineralization,bone [1]; at doses used clinically,impairs mineralization
same,Effect on bone mineralization,bone [1]; given daily for more than several days,decline in bone mineralization
"NCCCC(O)(P(=O)(O)O)P(=O)(O)O [Alendronate, 4-amino-1-hydroxybutylidene-1,1-bisphosphonic acid monosodium trihydrate]",Adverse esophageal effects associated with use,esophagus,esophagitis and/or esophageal ulcers
same,Histopathology: esophageal epithelial surface,canine esophagus; [3],deep ulceration of the epithelial surface
same,Histopathology: submucosal inflammation and vacuolation,canine esophagus; [3],marked submucosal inflammation and vacuolation
same,Histopathology: esophageal epithelial surface,canine esophagus; [4],deep ulceration of the epithelial surface
same,Histopathology: submucosal inflammation and vacuolation,canine esophagus; [4],marked submucosal inflammation and vacuolation
same,Histopathology: vacuolation,"canine esophagus; 0.80 mg/mL alendronate, 50 mL, 1x weekly for a total of 4 doses, sacrifice 7 days after last dosing (Group 5, n = 6)",no
same,Histopathology: esophageal epithelium,canine esophagus; [5],normal with an intact epithelium
same,Histopathology: submucosal inflammation,canine esophagus; [5],absence of inflammatory cells in the submucosa and no
same,Histopathology: esophageal epithelial surface,canine esophagus; [6],intact epithelial surface
same,Histopathology: submucosal inflammation and vacuolation,canine esophagus; [6],very slight submucosal inflammation and vacuolation
same,Histopathology: esophageal epithelium,canine esophagus; [7],intact epithelium
same,Histopathology: vacuolation,canine esophagus; [7],no vacuolation and no
"O=P(O)(O)C(O)(Cc1cccnc1)P(=O)(O)O [Risedronate, 1-hydroxy-2-(3-pyridinyl)-ethylidene-1,1-bisphosphonic acid]","Antiresorptive bone effect, cyclic versus continuous daily dosing",bone [2],less effective than continuous daily dosing
same,Histopathology: animals with deep ulceration of epithelial surface,canine esophagus; [8],4 of 8 animals
same,Histopathology: esophageal epithelial surface,canine esophagus; [8],deep ulceration of the epithelial surface
same,Histopathology: submucosal inflammation and vacuolation,canine esophagus; [8],marked submucosal inflammation and vacuolation
same,Esophageal irritation potential,canine esophagus,high
"O=P(O)(O)C(Sc1ccc(Cl)cc1)P(=O)(O)O [Tiludronate, (4-chlorophenyl)thiomethane-1,1-disphosphonic acid]",Esophageal irritation potential,canine esophagus,high
